The source made the active and inactive calls. The calls are words filed in the database; no cut-off is given here.
Tests used:
[1] = system: HeLa; test: Cytotoxicity against human HeLa cells; assay type: functional, cell-based
[2] = molecular target: T1, 5-hydroxytryptamine receptor 1A (Homo sapiens) (UniProt P08908); test: Inhibition of 5HT1A receptor at 25 uM
T1 sequence (whole entry): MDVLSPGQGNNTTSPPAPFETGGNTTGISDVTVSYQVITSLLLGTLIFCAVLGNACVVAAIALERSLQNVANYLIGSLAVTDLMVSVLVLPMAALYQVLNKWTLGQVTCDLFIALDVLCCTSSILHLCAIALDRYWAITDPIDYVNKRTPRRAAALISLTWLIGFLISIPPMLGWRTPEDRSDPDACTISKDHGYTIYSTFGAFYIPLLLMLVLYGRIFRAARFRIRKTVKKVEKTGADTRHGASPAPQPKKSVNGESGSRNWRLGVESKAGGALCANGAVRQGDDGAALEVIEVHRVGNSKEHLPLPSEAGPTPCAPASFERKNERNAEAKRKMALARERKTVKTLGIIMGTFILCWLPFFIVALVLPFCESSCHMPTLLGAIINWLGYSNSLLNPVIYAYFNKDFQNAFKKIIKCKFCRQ

[3] = molecular target: T2, 5-hydroxytryptamine receptor 3A (Homo sapiens) (UniProt P46098); test: Inhibition of 5HT3 receptor at 25 uM
T2 sequence (whole entry): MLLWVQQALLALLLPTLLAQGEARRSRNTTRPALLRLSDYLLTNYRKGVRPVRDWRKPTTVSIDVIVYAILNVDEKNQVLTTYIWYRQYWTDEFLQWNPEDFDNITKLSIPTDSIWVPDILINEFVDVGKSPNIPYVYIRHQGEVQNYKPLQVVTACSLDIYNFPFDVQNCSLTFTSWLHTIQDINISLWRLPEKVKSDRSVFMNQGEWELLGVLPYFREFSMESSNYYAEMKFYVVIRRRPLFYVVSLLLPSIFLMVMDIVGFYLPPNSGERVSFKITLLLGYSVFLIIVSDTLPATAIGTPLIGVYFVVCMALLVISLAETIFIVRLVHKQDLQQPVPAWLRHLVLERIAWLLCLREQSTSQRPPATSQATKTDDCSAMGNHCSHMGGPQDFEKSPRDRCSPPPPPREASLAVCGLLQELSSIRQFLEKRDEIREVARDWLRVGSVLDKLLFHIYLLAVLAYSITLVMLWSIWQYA

[4] = molecular target: 5-hydroxytryptamine receptor 2B (Homo sapiens, UniProt P41595); test: Inhibition of human 5HT2B receptor expressed in cos-7 cells assessed as [3H]5-HT […] after 120 mins; assay type: cell-based
Chain of 5-hydroxytryptamine receptor 2B (P41595 whole entry): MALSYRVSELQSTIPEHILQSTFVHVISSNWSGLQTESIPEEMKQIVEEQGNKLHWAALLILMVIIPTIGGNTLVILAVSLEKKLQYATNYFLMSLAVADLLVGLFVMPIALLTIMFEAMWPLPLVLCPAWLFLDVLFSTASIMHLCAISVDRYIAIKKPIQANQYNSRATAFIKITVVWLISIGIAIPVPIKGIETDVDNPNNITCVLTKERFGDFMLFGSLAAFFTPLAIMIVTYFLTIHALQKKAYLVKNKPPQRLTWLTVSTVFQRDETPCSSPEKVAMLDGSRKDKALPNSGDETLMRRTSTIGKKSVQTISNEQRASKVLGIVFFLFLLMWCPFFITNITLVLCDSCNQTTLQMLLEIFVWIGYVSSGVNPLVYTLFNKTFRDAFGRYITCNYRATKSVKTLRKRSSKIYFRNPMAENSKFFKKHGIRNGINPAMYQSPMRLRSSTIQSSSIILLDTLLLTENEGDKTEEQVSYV

C/C=C1\C[C@H]2CNc3c(OC)cccc3C(=O)N2C1 [USABAMYCIN B]
IC50 [1]: 104 µM
inhibition [2]: inactive
inhibition [3]: inactive
IC50 [4]: 8.45 µM
Ki [4]: 5.38 µM

CC/C=C1\C[C@H]2CNc3ccccc3C(=O)N2C1 [USABAMYCIN C]
IC50 [1]: 102 µM
inhibition [2]: inactive
inhibition [3]: inactive
IC50 [4]: 8.24 µM
Ki [4]: 5.24 µM

CC/C=C1\C[C@H]2CNc3c(OC)cccc3C(=O)N2C1 [USABAMYCIN A]
IC50 [1]: 107 µM
inhibition [2]: inactive
inhibition [3]: inactive
IC50 [4]: 12.4 µM
Ki [4]: 7.89 µM

From ChEMBL document CHEMBL1921715, “Usabamycins A-C: new anthramycin-type analogues from a marine-derived actinomycete” (Bioorg Med Chem Lett, 2011)
